Where a name gives a salt, the structure may show the parent alone.
How the values were obtained:
[1] = biological target: T1, HCV polymerase (NS5B) type 1b (Hepatitis C virus genotype 1b, UniProt P26663); assay: Assay of enzyme (HCV polymerase) inhibitory activity, type 1b enzyme; assay type: biochemical, HCV BK strain (type 1b); settings: HCV polymerase inhibitory activity (IC50), 1b, type 1b enzyme 0.5 μg/ml, 25° C., 60 min
T1 construct: a region encoding NS5B (J Virol 1991 March, 65(3), 1105-13, 544 amino acids after deletion of 47 amino acids on the C-terminal); 6xHis (C); made in house; host or cells: Escherichia coli
Outline: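 IC50 derived from [3H]UTP incorporation into TCA-insoluble RNA, compared with and without test compound. Reaction (25 °C, 60 min, Tris pH 7.5, 5 mM MgCl2): E. coli-expressed 1b NS5B Δ47 with His tag at 0.5 μg/ml, 5 μg/ml run-off substrate RNA, ATP/GTP/CTP 50 μM, UTP 2 μM.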

[2] = biological target: T2, HCV polymerase (NS5B) type 1a (Hepatitis C virus genotype 1a, UniProt P26664); assay: Assay of enzyme (HCV polymerase) inhibitory activity, type 1a enzyme; assay type: biochemical, HCV type 1a (cloned from the blood of patients); settings: HCV polymerase inhibitory activity (IC50), 1a, type 1a enzyme 1.5 μg/ml, 25° C., 60 min
T2 construct: made in house; host or cells: Escherichia coli (by the 'similar method' of the 1b enzyme)
Outline: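 Reactions ran 60 min at 25° C in 20 mM Tris-HCl pH 7.5, 5 mM MgCl2, 50 mM NaCl, holding genotype 1a NS5B (1.5 μg/ml, Δ47 C-terminus, 6His), substrate RNA 5 μg/ml, UTP 2 μM with tritiated UTP and other NTPs 50 μM. IC50 derived from incorporated radiolabel in filter-trapped RNA relative to uninhibited reaction.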

SMILES	IC50 [1]	IC50 [2]
COC(=O)c1ncc(N2CCN(S(=O)(=O)c3ccc(C(F)(F)F)cc3)[C@@H](C(=O)NCc3ccc(C(C)C)cc3)C2)nc1N [Example 423, (R)-6′-amino-3-(4-isopropyl-benzylcarbamoyl)-4-(4-trifluoromethyl-benzenesulfonyl)-3,4,5,6-tetrahydro-2H-[1,2′]bipyrazinyl-5′-carboxylic acid methyl ester]	< 100 nM	< 100 nM
CCN(C)c1ccc(CNC(=O)[C@H]2CN(c3nc(C)c(C(=O)O)s3)CCN2S(=O)(=O)c2ccc(OC(F)(F)F)cc2)cc1 [Example 424, 2-[(R)-3-[4-(ethyl-methyl-amino)-benzylcarbamoyl]-4-(4-trifluoromethoxy-benzenesulfonyl)-piperazin-1-yl]-4-methyl-thiazole-5-carboxylic acid]	< 100 nM	< 100 nM
CCN(CC)c1ccc(CNC(=O)[C@H]2CN(c3nc(C)c(C(=O)O)s3)CCN2S(=O)(=O)c2ccc(OC(F)(F)F)cc2)cc1 [Example 425, 2-[(R)-3-(4-diethylamino-benzylcarbamoyl)-4-(4-trifluoromethoxy-benzenesulfonyl)-piperazin-1-yl]-4-methyl-thiazole-5-carboxylic acid]	< 100 nM	< 100 nM
CC(C)c1ccc(CNC(=O)[C@H]2CN(c3cc(C(=O)O)[nH]n3)CCN2S(=O)(=O)c2ccc(C(F)(F)F)cc2)cc1 [Example 426, 5-[(R)-3-(4-isopropyl-benzylcarbamoyl)-4-(4-trifluoromethyl-benzenesulfonyl)-piperazin-1-yl]-2H-pyrazole-3-carboxylic acid]	100 to 1000 nM	> 1000 nM
CC(C)c1ccc(CNC(=O)[C@H]2CN(c3n[nH]c(C(=O)O)c3Cl)CCN2S(=O)(=O)c2ccc(C(F)(F)F)cc2)cc1 [Example 427, 4-chloro-5-[(R)-3-(4-isopropyl-benzylcarbamoyl)-4-(4-trifluoromethyl-benzenesulfonyl)-piperazin-1-yl]-2H-pyrazole-3-carboxylic acid]	> 1000 nM	> 1000 nM
CC(=O)N1CCN(S(=O)(=O)c2ccc(CC3CC3)cc2)[C@@H](C(=O)NCc2ccc(C(C)C)cc2)C1 [Example 428, (R)-4-acetyl-1-(4-cyclopropylmethyl-benzenesulfonyl)-piperazine-2-carboxylic acid 4-isopropyl-benzylamide]	< 100 nM	< 100 nM
CCCc1ccc(S(=O)(=O)N2CCN(C(C)=O)C[C@@H]2C(=O)NCc2ccc(C(C)C)cc2)c(F)c1 [Example 429, (R)-4-acetyl-1-(2-fluoro-4-propyl-benzenesulfonyl)-piperazine-2-carboxylic acid 4-isopropyl-benzylamide]	< 100 nM	< 100 nM
CC(=O)N1CCN(S(=O)(=O)c2ccc(Br)cc2)[C@@H](C(=O)NCc2ccc(C(C)C)cc2)C1 [Example 430, (R)-4-acetyl-1-(4-bromo-benzenesulfonyl)-piperazine-2-carboxylic acid 4-isopropyl-benzylamide]	100 to 1000 nM	100 to 1000 nM
COC(=O)c1cnc(N2CCN(S(=O)(=O)c3ccc(C(F)(F)F)cc3)[C@@H](C(=O)NCc3ccc(C(C)C)cc3)C2)c(C)n1 [Example 431, (R)-3-(4-isopropyl-benzylcarbamoyl)-3′-methyl-4-(4-trifluoromethyl-benzenesulfonyl)-3,4,5,6-tetrahydro-2H-[1,2′]bipyrazinyl-5′-carboxylic acid methyl ester]	100 to 1000 nM	100 to 1000 nM
CCCc1ccc(CNC(=O)[C@H]2CN(c3cnc(C(=O)O)cn3)CCN2S(=O)(=O)c2ccc(OC(F)(F)F)cc2)c(C)c1 [Example 432, (R)-3-(2-methyl-4-propyl-benzylcarbamoyl)-4-(4-trifluoromethoxy-benzenesulfonyl)-3,4,5,6-tetrahydro-2H-[1,2′]bipyrazinyl-5′-carboxylic acid]	< 100 nM	< 100 nM
CC(=O)N1CCN(S(=O)(=O)c2ccc(C(C)C)cc2)[C@@H](C(=O)NCCc2c[nH]cn2)C1 [Example 433, (R)-4-acetyl-1-(4-isopropyl-benzenesulfonyl)-piperazine-2-carboxylic acid [2-(1H-imidazol-4-yl)-ethyl]-amide hydrochloride]	> 1000 nM	> 1000 nM
CCCc1ccc(S(=O)(=O)N2CCN(c3nc(C(=O)O)c(C)s3)C[C@@H]2C(=O)NCc2ccc(C(C)C)cc2)cc1 [Example 434, 2-[(R)-3-(4-isopropyl-benzylcarbamoyl)-4-(4-propyl-benzenesulfonyl)-piperazin-1-yl]-5-methyl-thiazole-4-carboxylic acid]	< 100 nM	< 100 nM
CCCc1ccc(CNC(=O)[C@H]2CN(c3cnc(C(=O)O)cn3)CCN2S(=O)(=O)c2ccc3c(c2)CCCCC3)cc1 [Example 435, (R)-3-(4-propyl-benzylcarbamoyl)-4-(6,7,8,9-tetrahydro-5H-benzenecycloheptene-2-sulfonyl)-3,4,5,6-tetrahydro-2H-[1,2′]bipyrazinyl-5′-carboxylic acid]	< 100 nM	< 100 nM
CCCc1ccc(CNC(=O)[C@H]2CN(C(=O)Nc3ccncc3)CCN2S(=O)(=O)c2ccc(OC(F)(F)F)cc2)cc1 [Example 436, (R)-4-(4-trifluoromethoxy-benzenesulfonyl)-piperazine-1,3-dicarboxylic acid 3-(4-propyl-benzylamide) 1-pyridin-4-ylamide]	< 100 nM	< 100 nM
CCCc1ccc(CNC(=O)[C@H]2CN(C(=O)Nc3nncs3)CCN2S(=O)(=O)c2ccc(OC(F)(F)F)cc2)cc1 [Example 437, (R)-4-(4-trifluoromethoxy-benzenesulfonyl)-piperazine-1,3-dicarboxylic acid 3-(4-propyl-benzylamide) 1-[1,3,4]thiadiazol-2-ylamide]	< 100 nM	< 100 nM
CCCc1ccc(CNC(=O)[C@H]2CN(c3cnc(C(=O)O)cn3)CCN2S(=O)(=O)c2ccc(CCC)s2)cc1 [Example 438, (R)-3-(4-propyl-benzylcarbamoyl)-4-(5-propyl-thiophene-2-sulfonyl)-3,4,5,6-tetrahydro-2H-[1,2′]bipyrazinyl-5′-carboxylic acid]	< 100 nM	< 100 nM
CC(C)c1ccc(CNC(=O)[C@H]2CN(c3cc(C(=O)O)nn3C)CCN2S(=O)(=O)c2ccc(C(F)(F)F)cc2)cc1 [Example 439, 5-[(R)-3-(4-isopropyl-benzylcarbamoyl)-4-(4-trifluoromethyl-benzenesulfonyl)-piperazin-1-yl]-1-methyl-1H-pyrazole-3-carboxylic acid]	100 to 1000 nM	> 1000 nM
CCCc1ccc(CNC(=O)[C@H]2CN(c3cnc(C(=O)O)cn3)CCN2S(=O)(=O)c2ccc(CCC)cc2)cc1 [Example 440, (R)-4-(4-propyl-benzenesulfonyl)-3-(4-propyl-benzylcarbamoyl)-3,4,5,6-tetrahydro-2H-[1,2′]bipyrazinyl-5′-carboxylic acid]	< 100 nM	< 100 nM
CCCc1ccc(S(=O)(=O)N2CCN(c3cnc(C(=O)O)cn3)C[C@@H]2C(=O)NCc2ccc(CCC)cc2C)cc1 [Example 441, (R)-3-(2-methyl-4-propyl-benzylcarbamoyl)-4-(4-propyl-benzenesulfonyl)-3,4,5,6-tetrahydro-2H-[1,2′]bipyrazinyl-5′-carboxylic acid]	< 100 nM	< 100 nM
